Measurements taken from BindingDB's records for PubMed 2498315 (University of California San Diego, 1989).

Molecular target: Phospholipase A2 (Homo sapiens, UniProt P04054)
Assay: Phospholipase A2 Vesicle Assay
Conditions: pH 9; 40 °C
From the text: Inhibition assay using phospholipase A2.

Phospholipase A2, sequence (P04054 whole entry): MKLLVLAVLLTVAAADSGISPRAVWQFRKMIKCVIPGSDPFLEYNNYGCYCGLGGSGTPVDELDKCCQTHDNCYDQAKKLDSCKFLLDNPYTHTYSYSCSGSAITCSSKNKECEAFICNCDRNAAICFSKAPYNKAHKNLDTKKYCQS

| IC50 [µM] | SMILES |
| --- | --- |
| 16 | CCCCCCCCCCC/C=C/C(C)(C)/C=C/CCCC(=O)O [7,7-dimethyl-5,8-eicosadienoic acid] |
| 26 | CC(C)=CCC/C(C)=C/C/C(C=O)=C\CCC1=CC(=O)OC1O (stereo not drawn) [Manoalogue] |

| SMILES | IC50 [µM] |
| --- | --- |
| O=C(CBr)c1ccc(Br)cc1 [2-bromo-1-(4-bromophenyl)ethan-1-one] | 550 |
